The values that follow come from patent publication US20170152226A1, “FUNCTIONALISED AND SUBSTITUTED INDOLES AS ANTI-CANCER AGENTS” (Novogen Ltd., priority 2014, published 2017).

The structures appear in SMILES notation. Read-outs that look alike come from different tables or passages of the source.

What all share (assay type): cell-based
The test system of experiment [1] is A549. In words: Anti-proliferative activity, cell-titre luminescent viability assay. The following applies: Homo sapiens, read-out: IC50 Lung (NSLC) A549. Put shortly:
(§1)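 Cells were seeded at pre-determined densities, cultured 24 hours at 37° C/5% CO2, then exposed 72 hours to compound at 0.03, 0.3, 3 and 30 μM or at 0.1, 0.3, 1, 3, 10 and 30 μM. Viability was read by cell-titre luminescence after 30 min, normalized to untreated control, and IC50 or EC50 derived.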

Experiment [2] deals with DU145. The description is as above. The following applies: Homo sapiens, read-out: IC50 Prostate DU145. In short, it runs like this: as §1
Experiment [3] relates to CaCo2. Described as above. The following applies: Homo sapiens, read-out: IC50 Colorectal CaCo2. In short, it runs like this: as §1
In experiment [4] the test system is MDA-MB-231. The description is as above. The following applies: Homo sapiens, read-out: IC50 Breast MDA-MB-231. In short, it runs like this: as §1
For experiment [5], the system named is PC3. The experiment is described as above. The following applies: Homo sapiens, read-out: IC50 Prostate PC3. Put shortly:
as §1

Experiment [6] relates to SK-N-SH. Described as above. The following applies: Homo sapiens, SK-N-SH, read-out: IC50 Neuroblastoma SK-N-SH. Put shortly:
as §1

Experiment [7] relates to SK-Mel-28. The experiment is described as above. The following applies: Homo sapiens, SK-MEL-28, 72 hours, read-out: IC50 Melanoma SK-Mel-28. In short, it runs like this:
as §1

Experiment [8] concerns IFN-γ. The experiment is described as follows: Inhibition of cytokine release from PBMCs (HTRF). The following applies: PBMC, human PBMCs, PMA and ionomycin stimulated. Here is the method: (§2) The ability of compounds 3507, 3520, 3534 and 3538 to inhibit the release of cytokines TNF-α, IFN-γ, IL-6, IL-21, IL-17A and IL-23 was evaluated in vitro (Tables 4 and 5). Briefly, human peripheral blood mononuclear cells (PBMCs) were isolated from human peripheral blood by Histopaque density gradient centrifugation. The freshly isolated PBMCs were seeded at 50,000 cells/well in a 96-well half area plate. PBMCs were dosed with the test compounds (at 10 μM, 1 μM and 0.1 μM) and then incubated at 37° C. and 5% CO2 for 2 hours. To stimulate release of the cytokines IFN-γ, IL-21, IL-17A and IL-23, the PBMCs were treated with 50 ng/mL of phorbol 12-myristate 13-acetate (PMA) and 1 μg/mL of ionomycin and to stimulate the release of TNF-α and IL-6, PBMCs were treated with 100 ng/mL of lipopolysaccharide (LPS) from gram-negative bacteria. The PBMCs were then incubated at 37° C. and 5% CO2 for a further 6 hours and the cell supernatant was collected and a Homogenous Time Resolved Fluorescence (HTRF) assay was carried out following the manufacturer's instructions. Cytokine release from the PBMCs was captured using a Perkin Elmer ENVISION 2104 microplate reader set at 615 nm and 665 nm respectively.

Experiment [9] deals with TNF-α. In words: Inhibition of cytokine release from PBMCs (HTRF). The following applies: PBMC, human PBMCs, LPS stimulated. On the procedure: as §2
Experiment [10] relates to IL-6. In words: Inhibition of cytokine release from PBMCs (HTRF). The following applies: PBMC, human PBMCs, LPS stimulated. On the procedure:
as §2
In general terms: In TR-FRET formats the signal depends on donor and acceptor labels being close together.

The test system of experiment [11] is IL-21. In words: Inhibition of cytokine release from PBMCs (HTRF). The following applies: PBMC, human PBMCs, PMA and ionomycin stimulated. Here is the method:
as §2

For experiment [12], the system named is IL-17A. In words: Inhibition of cytokine release from PBMCs (HTRF). The following applies: PBMC, human PBMCs, PMA and ionomycin stimulated. Here is the method: as §2
Experiment [13] has as its system IL-23. The experiment is described as follows: Inhibition of cytokine release from PBMCs (HTRF). The following applies: PBMC, human PBMCs, PMA and ionomycin stimulated. Here is the method: as §2
[14] abbreviates: A549, 72 h, 0.03, 0.3, 3 and 30 μM, linear regression of semi-log plots.
The mark [15] stands for this setting: DU-145, 72 h, 0.03, 0.3, 3 and 30 μM, linear regression of semi-log plots.
Where [16] appears, read: Caco-2, 72 h, 0.03, 0.3, 3 and 30 μM, linear regression of semi-log plots.
[17] abbreviates: MDA-MB-231, 72 h, 0.03, 0.3, 3 and 30 μM, linear regression of semi-log plots.
Setting [18] is: PC-3, 72 h, 0.03, 0.3, 3 and 30 μM, linear regression of semi-log plots.
Where [19] appears, read: 72 h, 0.03, 0.3, 3 and 30 μM, linear regression of semi-log plots.
[20] abbreviates: 0.03, 0.3, 3 and 30 μM, linear regression of semi-log plots.
[21] abbreviates: A549, 72 h, 0.1, 0.3, 1, 3, 10 and 30 μM, nonlinear regression sigmoidal dose-response (EC50).
Where [22] appears, read: DU-145, 72 h, 0.1, 0.3, 1, 3, 10 and 30 μM, nonlinear regression sigmoidal dose-response (EC50).
Where [23] appears, read: Caco-2, 72 h, 0.1, 0.3, 1, 3, 10 and 30 μM, nonlinear regression sigmoidal dose-response (EC50).
Setting [24] is: MDA-MB-231, 72 h, 0.1, 0.3, 1, 3, 10 and 30 μM, nonlinear regression sigmoidal dose-response (EC50).
Setting [25] is: PC-3, 72 h, 0.1, 0.3, 1, 3, 10 and 30 μM, nonlinear regression sigmoidal dose-response (EC50).
[26] abbreviates: 72 h, 0.1, 0.3, 1, 3, 10 and 30 μM, nonlinear regression sigmoidal dose-response (EC50).
[27] abbreviates: 0.1, 0.3, 1, 3, 10 and 30 μM, nonlinear regression sigmoidal dose-response (EC50).

The IC50 is the concentration at which inhibition is half-maximal. What is called inhibition is the relative decrease from the control value, in per cent. Take `COc1ccc(CCN2CCN(C(=O)c3ccc(Cc4ccc5c(c4)c(C)c(C)n5CCCN4CCN(C)CC4)cc3)CC2)cc1` [Compound 3520, (4-((2,3-dimethyl-1-(3-(4-methylpiperazin-1-yl)propyl)-1H-indol-5-yl)methyl)phenyl)(4-(4-methoxyphenethyl)piperazin-1-yl)methanone]: the IC50 in [1] (setting [14]) amounted to 2.4 µM; in experiment [2] (setting [15]) it was 2.7 µM; in experiment [3] (setting [16]) it was 3.5 µM; in experiment [4] (setting [17]) it was 2.8 µM; in experiment [5] (setting [18]), 2.3 µM; in experiment [6] (setting [19]) it was 2.3 µM. The IC50 in experiment [7] (setting [20]) worked out at 2.5 µM. The inhibition at 0.1 µM in experiment [8] was 1%; in experiment [9], -8%; in experiment [10], -10%; in experiment [11], -8%; in experiment [12] it was -11%; in experiment [13], -8%. Besides, the inhibition at 1 µM in [8] was 0%; in [9] it was -10%; in experiment [10], -9%; in experiment [11] it was -13%; in experiment [12], -7%; in experiment [13], -1%. Further, the inhibition at 10 µM in [8] was 4%; in [9], -14%; in [10], 3%; in experiment [11], -12%; in experiment [12], 1%; in experiment [13], 12%.
As to `Cc1c(C)n(CCCN2CCN(C)CC2)c2ccc(Nc3ccc(C(=O)N4CCN(CCc5cccc(F)c5)CC4)cc3)cc12` [Compound 3534, (4-((2,3-dimethyl-1-(3-(4-methylpiperazin-1-yl)propyl)-1H-indol-5-yl)amino)phenyl)(4-(3-fluorophenethyl)piperazin-1-yl)methanone], the IC50 in experiment [1] (setting [14]) came to 1.5 µM; in experiment [2] (setting [15]) it was 1.4 µM; in experiment [3] (setting [16]) it was 3.2 µM; in [4] (setting [17]) it was 1.6 µM; in experiment [5] (setting [18]) it was 2.8 µM; in experiment [6] (setting [19]), 1.4 µM. In addition, in experiment [7] (setting [20]), the IC50 came out at 1.2 µM. For the same compound, the inhibition at 0.1 µM in experiment [8] was 23%; in experiment [9], 2%; in experiment [10], 13%; in [11], 0%; in [12], 1%; in experiment [13] it was -5%. Further, the inhibition at 1 µM in [8] was 39%; in [9], 5%; in experiment [10], 21%; in experiment [11], -8%; in experiment [12] it was 1%; in [13] it was -1%. Also, the inhibition at 10 µM in experiment [8] was 85%; in [9] it was -12%; in [10], 48%; in experiment [11] it was 11%; in [12], 12%; in [13] it was 20%.
With `COc1ccc2cc(CCN3CCN(C(=O)c4cccc(Cc5ccc6c(c5)c(C)c(C)n6CCCN5CCN(C)CC5)c4)CC3)ccc2c1` [Compound 3538, (3-((2,3-dimethyl-1-(3-(4-methylpiperazin-1-yl)propyl)-1H-indol-5-yl)methyl)phenyl)(4-(2-(6-methoxynaphthalen-2-yl)ethyl)piperazin-1-yl)methanone], the half-maximal inhibitory concentration (IC50) came to 4.3 µM in experiment [1] (setting [21]); 4.2 µM in experiment [2] (setting [22]); 5.7 µM in experiment [3] (setting [23]); 3.6 µM in experiment [4] (setting [24]); 3.9 µM in [5] (setting [25]); 4.8 µM in experiment [6] (setting [26]). In addition, in [7] (setting [27]), the half-inhibitory concentration (IC50) is 3.3 µM. The inhibition at 0.1 µM in experiment [8] is 24%; in [9], -10%; in [10], -13%; in experiment [11], 1%; in experiment [12], 21%; in [13], -19%. Moreover, the inhibition at 1 µM in experiment [8] is 58%; in experiment [9], -4%; in experiment [10], -13%; in experiment [11], 8%; in [12], 42%; in experiment [13] it was -20%. For the same compound, the inhibition at 10 µM was 86% in experiment [8]; -7% in experiment [9]; -10% in [10]; 11% in [11]; 86% in [12]; 30% in [13].
Turning to `Cc1c(C)n(CCCN2CCN(C)CC2)c2ccc(Cc3ccc(C(=O)N4CCN(CCc5cccc6ccccc56)CC4)cc3)cc12` [Compound 3544, (4-((2,3-dimethyl-1-(3-(4-methylpiperazin-1-yl)propyl)-1H-indol-5-yl)methyl)phenyl)(4-(2-(naphthalen-1-yl)ethyl)piperazin-1-yl)methanone], the IC50 is 5.7 µM in [1] (setting [21]); 9 µM in experiment [2] (setting [22]); 13.5 µM in experiment [3] (setting [23]); 8.2 µM in experiment [4] (setting [24]); 8.1 µM in [5] (setting [25]); 7 µM in [6] (setting [26]). For the same compound, the IC50 in [7] (setting [27]) is 7.2 µM.
In the case of `COc1ccc2cccc(CCN3CCN(C(=O)c4ccc(Cc5ccc6c(c5)c(C)c(C)n6CCCN5CCN(C)CC5)cc4)CC3)c2c1` [Compound 3545, (4-((2,3-dimethyl-1-(3-(4-methylpiperazin-1-yl)propyl)-1H-indol-5-yl)methyl)phenyl)(4-(2-(7-methoxynaphthalen-1-yl)ethyl)piperazin-1-yl)methanone], the IC50 in experiment [1] (setting [21]) worked out at 4.2 µM; in [2] (setting [22]), 3.6 µM; in experiment [3] (setting [23]), 3.1 µM; in [4] (setting [24]) it was 2.3 µM; in experiment [5] (setting [25]), 3 µM; in experiment [6] (setting [26]) it was 2.1 µM. Further, in experiment [7] (setting [27]), the IC50 is 3.2 µM.
